Laboratory results as given in patent US20020045638A1, “Method of treating estrogen receptor positive carcinoma” (priority 2000, published 2002).

Experiments:
[1] = system: MCF-7 human breast cancer cells; assay: Inhibition of growth of MCF-7 breast cancer cells (MTT), with MacSynergy II synergy analysis; details: for Antagonsim / Synergy: MCF-7, antiestrogen in combination with CCI-779, MacSynergy II, Bliss independence model; for synergy of growth inhibition (in words): MCF-7 cells, in combination with CCI-779;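 as to all read-outs here: cells treated five or six days with single agents or combinations, growth read by MTT, synergy surface equals observed % inhibition minus Bliss additive prediction, values under 0% signal antagonism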
[2] = system: BG-1 human ovarian cancer cells; assay: Inhibition of growth of BG-1 ovarian cancer cells (MTT), with MacSynergy II synergy analysis; format: cell-based; details: for Antagonsim / Synergy: BG-1, antiestrogen in combination with CCI-779, MacSynergy II, Bliss independence model; for Percent Inhibition: CCI-779 0 nM
Experimental: In these test procedures, rapamycin 42-ester with 3-hydroxy-2-(hydroxymethyl)-2-methylpropionic acid was used as a representative rapamycin, and 2-(4-hydroxy-phenyl)-3-methyl-1-[4-(2-piperdin-1-yl-ethoxy)-benzyl-1 H-indol-5-ol, raloxifene, and 4-hydroxytamoxifen were used as representative antiestrogens.
One day before the experiment, cells were plated in 96-well plates at a cell density of 2,500 cells/well in IMEM medium supplemented with 10% fetal bovine serum. The next day, cells were treated with various concentrations of antiestrogen and rapamycin 42-ester with 3-hydroxy-2-(hydroxymethyl)-2-methylpropionic acid (referred to as CCI-779 in the tables below). Five or six-days later, cell growth was monitored.

## O=C(c1ccc(OCCN2CCCCC2)cc1)c1c(-c2ccc(O)cc2)sc2cc(O)ccc12 [RAL, raloxifene, reference compound]
[1]
  Antagonsim: 0.0 μM^2%
  Synergy: 113.0 μM^2%
  synergy of growth inhibition (in words): synergistic inhibition
[1]; Table C, CCI-779 0 nM, Raloxifene 0.25 nM
  Percent Inhibition: −1.4%
[1]; Table C, CCI-779 0 nM, Raloxifene 0.5 nM
  Percent Inhibition: −5.17%
[1]; Table C, CCI-779 0 nM, Raloxifene 1 nM
  Percent Inhibition: 17.3%
[1]; Table C, CCI-779 0 nM, Raloxifene 2 nM
  Percent Inhibition: 36.78%
[1]; Table C, CCI-779 0 nM, Raloxifene 3 nM
  Percent Inhibition: 42.4%
[1]; Table C, CCI-779 0 nM, Raloxifene 4 nM
  Percent Inhibition: 50.49%
[1]; Table C, CCI-779 0 nM, Raloxifene 5 nM
  Percent Inhibition: 50.5%
[2]
  Antagonsim: −1.8 μM^2%
  Synergy: 40.3 μM^2%
[2]; Table I, Raloxifene 0.25 nM
  Percent Inhibition: 0.74%
[2]; Table I, Raloxifene 0.5 nM
  Percent Inhibition: −3.32%
[2]; Table I, Raloxifene 1 nM
  Percent Inhibition: 7.79%
[2]; Table I, Raloxifene 2 nM
  Percent Inhibition: 9.85%
[2]; Table I, Raloxifene 3 nM
  Percent Inhibition: 11.5%
[2]; Table I, Raloxifene 4 nM
  Percent Inhibition: 14.49%
[2]; Table I, Raloxifene 5 nM
  Percent Inhibition: 14.04%

## CCC(=C(c1ccc(O)cc1)c1ccc(OCCN(C)C)cc1)c1ccccc1 [TAM, 4-hydroxytamoxifen, reference compound]
[1]
  Antagonsim: 0.0 μM^2%
  Synergy: 77.00 μM^2%
  synergy of growth inhibition (in words): synergistic inhibition
[1]; Table B, CCI-779 0 nM, 4-Hydroxytamoxifen 5 nM
  Percent Inhibition: 20.44%
[1]; Table B, CCI-779 0 nM, 4-Hydroxytamoxifen 10 nM
  Percent Inhibition: 22.75%
[1]; Table B, CCI-779 0 nM, 4-Hydroxytamoxifen 20 nM
  Percent Inhibition: 39.85%
[1]; Table B, CCI-779 0 nM, 4-Hydroxytamoxifen 30 nM
  Percent Inhibition: 41.46%
[1]; Table B, CCI-779 0 nM, 4-Hydroxytamoxifen 40 nM
  Percent Inhibition: 39.09%
[1]; Table B, CCI-779 0 nM, 4-Hydroxytamoxifen 50 nM
  Percent Inhibition: 47.19%
[1]; Table B, CCI-779 0 nM, 4-Hydroxytamoxifen 100 nM
  Percent Inhibition: 36.99%
[1]; Table F, 4-Hydroxytamoxifen 0 nM + 4-Hydroxytamoxifen 5 nM
  Percent Inhibition: 25.02%
[1]; Table F, 4-Hydroxytamoxifen 0 nM + 4-Hydroxytamoxifen 10 nM
  Percent Inhibition: 37.37%
[1]; Table F, 4-Hydroxytamoxifen 0 nM + 4-Hydroxytamoxifen 20 nM
  Percent Inhibition: 44.9%
[1]; Table F, 4-Hydroxytamoxifen 0 nM + 4-Hydroxytamoxifen 30 nM
  Percent Inhibition: 42.42%
[1]; Table F, 4-Hydroxytamoxifen 0 nM + 4-Hydroxytamoxifen 40 nM
  Percent Inhibition: 46.46%
[1]; Table F, 4-Hydroxytamoxifen 0 nM + 4-Hydroxytamoxifen 50 nM
  Percent Inhibition: 45.78%
[1]; Table F, 4-Hydroxytamoxifen 0 nM + 4-Hydroxytamoxifen 100 nM
  Percent Inhibition: 49.99%
[1]; Table F, 4-Hydroxytamoxifen 5 nM + 4-Hydroxytamoxifen 0 nM
  Percent Inhibition: 12.73%
[1]; Table F, 4-Hydroxytamoxifen 5 nM + 4-Hydroxytamoxifen 5 nM
  Percent Inhibition: 37.12%
[1]; Table F, 4-Hydroxytamoxifen 5 nM + 4-Hydroxytamoxifen 10 nM
  Percent Inhibition: 49.04%
[1]; Table F, 4-Hydroxytamoxifen 5 nM + 4-Hydroxytamoxifen 20 nM
  Percent Inhibition: 50.12%
[1]; Table F, 4-Hydroxytamoxifen 5 nM + 4-Hydroxytamoxifen 30 nM
  Percent Inhibition: 50.39%
[1]; Table F, 4-Hydroxytamoxifen 5 nM + 4-Hydroxytamoxifen 40 nM
  Percent Inhibition: 54.19%
[1]; Table F, 4-Hydroxytamoxifen 5 nM + 4-Hydroxytamoxifen 50 nM
  Percent Inhibition: 53.75%
[1]; Table F, 4-Hydroxytamoxifen 5 nM + 4-Hydroxytamoxifen 100 nM
  Percent Inhibition: 59.23%
[1]; Table F, 4-Hydroxytamoxifen 10 nM + 4-Hydroxytamoxifen 0 nM
  Percent Inhibition: 27.87%
[1]; Table F, 4-Hydroxytamoxifen 10 nM + 4-Hydroxytamoxifen 5 nM
  Percent Inhibition: 47.71%
[1]; Table F, 4-Hydroxytamoxifen 10 nM + 4-Hydroxytamoxifen 10 nM
  Percent Inhibition: 47.11%
[1]; Table F, 4-Hydroxytamoxifen 10 nM + 4-Hydroxytamoxifen 20 nM
  Percent Inhibition: 45.86%
[1]; Table F, 4-Hydroxytamoxifen 10 nM + 4-Hydroxytamoxifen 30 nM
  Percent Inhibition: 47.6%
[1]; Table F, 4-Hydroxytamoxifen 10 nM + 4-Hydroxytamoxifen 40 nM
  Percent Inhibition: 53.22%
[1]; Table F, 4-Hydroxytamoxifen 10 nM + 4-Hydroxytamoxifen 50 nM
  Percent Inhibition: 56.54%
[1]; Table F, 4-Hydroxytamoxifen 10 nM + 4-Hydroxytamoxifen 100 nM
  Percent Inhibition: 58.11%
[1]; Table F, 4-Hydroxytamoxifen 50 nM + 4-Hydroxytamoxifen 0 nM
  Percent Inhibition: 39.46%
[1]; Table F, 4-Hydroxytamoxifen 50 nM + 4-Hydroxytamoxifen 5 nM
  Percent Inhibition: 48.51%
[1]; Table F, 4-Hydroxytamoxifen 50 nM + 4-Hydroxytamoxifen 10 nM
  Percent Inhibition: 51.71%
[1]; Table F, 4-Hydroxytamoxifen 50 nM + 4-Hydroxytamoxifen 20 nM
  Percent Inhibition: 46.36%
[1]; Table F, 4-Hydroxytamoxifen 50 nM + 4-Hydroxytamoxifen 30 nM
  Percent Inhibition: 42.54%
[1]; Table F, 4-Hydroxytamoxifen 50 nM + 4-Hydroxytamoxifen 40 nM
  Percent Inhibition: 48.3%
[1]; Table F, 4-Hydroxytamoxifen 50 nM + 4-Hydroxytamoxifen 50 nM
  Percent Inhibition: 50.98%
[1]; Table F, 4-Hydroxytamoxifen 50 nM + 4-Hydroxytamoxifen 100 nM
  Percent Inhibition: 58.57%
[1]; Table F, 4-Hydroxytamoxifen 100 nM + 4-Hydroxytamoxifen 0 nM
  Percent Inhibition: 46.41%
[1]; Table F, 4-Hydroxytamoxifen 100 nM + 4-Hydroxytamoxifen 5 nM
  Percent Inhibition: 52.37%
[1]; Table F, 4-Hydroxytamoxifen 100 nM + 4-Hydroxytamoxifen 10 nM
  Percent Inhibition: 50.34%
[1]; Table F, 4-Hydroxytamoxifen 100 nM + 4-Hydroxytamoxifen 20 nM
  Percent Inhibition: 47.64%
[1]; Table F, 4-Hydroxytamoxifen 100 nM + 4-Hydroxytamoxifen 30 nM
  Percent Inhibition: 48.22%
[1]; Table F, 4-Hydroxytamoxifen 100 nM + 4-Hydroxytamoxifen 40 nM
  Percent Inhibition: 51.79%
[1]; Table F, 4-Hydroxytamoxifen 100 nM + 4-Hydroxytamoxifen 50 nM
  Percent Inhibition: 55.29%
[1]; Table F, 4-Hydroxytamoxifen 100 nM + 4-Hydroxytamoxifen 100 nM
  Percent Inhibition: 61.34%
[1]; Table F, 4-Hydroxytamoxifen 200 nM + 4-Hydroxytamoxifen 0 nM
  Percent Inhibition: 45.75%
[1]; Table F, 4-Hydroxytamoxifen 200 nM + 4-Hydroxytamoxifen 5 nM
  Percent Inhibition: 54.54%
[1]; Table F, 4-Hydroxytamoxifen 200 nM + 4-Hydroxytamoxifen 10 nM
  Percent Inhibition: 51.06%
[1]; Table F, 4-Hydroxytamoxifen 200 nM + 4-Hydroxytamoxifen 20 nM
  Percent Inhibition: 52%
[1]; Table F, 4-Hydroxytamoxifen 200 nM + 4-Hydroxytamoxifen 30 nM
  Percent Inhibition: 49.75%
[1]; Table F, 4-Hydroxytamoxifen 200 nM + 4-Hydroxytamoxifen 40 nM
  Percent Inhibition: 59.13%
[1]; Table F, 4-Hydroxytamoxifen 200 nM + 4-Hydroxytamoxifen 50 nM
  Percent Inhibition: 59.05%
[1]; Table F, 4-Hydroxytamoxifen 200 nM + 4-Hydroxytamoxifen 100 nM
  Percent Inhibition: 61.13%
[1]; Table F, 4-Hydroxytamoxifen 400 nM + 4-Hydroxytamoxifen 0 nM
  Percent Inhibition: 48.85%
[1]; Table F, 4-Hydroxytamoxifen 400 nM + 4-Hydroxytamoxifen 5 nM
  Percent Inhibition: 52.28%
[1]; Table F, 4-Hydroxytamoxifen 400 nM + 4-Hydroxytamoxifen 10 nM
  Percent Inhibition: 58.29%
[1]; Table F, 4-Hydroxytamoxifen 400 nM + 4-Hydroxytamoxifen 20 nM
  Percent Inhibition: 56.61%
[1]; Table F, 4-Hydroxytamoxifen 400 nM + 4-Hydroxytamoxifen 30 nM
  Percent Inhibition: 57.28%
[1]; Table F, 4-Hydroxytamoxifen 400 nM + 4-Hydroxytamoxifen 40 nM
  Percent Inhibition: 59.68%
[1]; Table F, 4-Hydroxytamoxifen 400 nM + 4-Hydroxytamoxifen 50 nM
  Percent Inhibition: 67.28%
[1]; Table F, 4-Hydroxytamoxifen 400 nM + 4-Hydroxytamoxifen 100 nM
  Percent Inhibition: 64.92%
[2]
  Antagonsim: 0.0 μM^2%
  Synergy: 0.3 μM^2%
[2]; Table H, 4-Hydroxytamoxifen 5 nM
  Percent Inhibition: 23.99%
[2]; Table H, 4-Hydroxytamoxifen 10 nM
  Percent Inhibition: 21.39%
[2]; Table H, 4-Hydroxytamoxifen 20 nM
  Percent Inhibition: 35.05%
[2]; Table H, 4-Hydroxytamoxifen 30 nM
  Percent Inhibition: 36.43%
[2]; Table H, 4-Hydroxytamoxifen 40 nM
  Percent Inhibition: 39.51%
[2]; Table H, 4-Hydroxytamoxifen 50 nM
  Percent Inhibition: 47.73%
[2]; Table H, 4-Hydroxytamoxifen 100 nM
  Percent Inhibition: 50%
